PubChem BioAssay (NCI)
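Compound exposure: 48 hours, 5 concentrations, 96-well plates. TGI marks complete inhibition of growth.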

Key:
Assay in all cases: inhibition of tumour cell growth, NCI panel, 48 h
[1] = test system: A498 renal
[2] = test system: COLO 205 colon
[3] = test system: HL-60(TB) leukemia
[4] = test system: K-562 leukemia
[5] = test system: MOLT-4 leukemia
[6] = test system: NCI-H226 lung
[7] = test system: NCI-H522 lung
[8] = test system: SK-OV-3 ovarian
[9] = test system: SNB-19 CNS
[10] = test system: UACC-62 melanoma
[11] = test system: HOP-62 NSCLC
[12] = test system: SF-539 CNS
[13] = test system: NCI/ADR-RES ovarian

Structure (SMILES) | TGI [1] [µM] | TGI [2] [µM] | TGI [3] [µM] | TGI [4] [µM] | TGI [5] [µM] | TGI [6] [µM] | TGI [7] [µM] | TGI [8] [µM] | TGI [9] [µM] | TGI [10] [µM] | TGI [11] [µM] | TGI [12] [µM] | TGI [13] [µM]
CCc1cccc(C(C)C)c1NC(=O)C(=O)C(C(=O)C(=O)OC)c1nc2ccccc2[nH]c1=O (stereo unspecified) | > 100 | > 100 | > 100 | > 100 | > 100 | > 100 | > 100 | > 100 | > 100 | > 100 |  |  | 
Cc1ccc(NC(=O)CC(=O)n2nc(-c3ccccc3)c(N=Nc3ccc(Cl)cc3)c2-c2ccccc2)cc1 | > 100 | > 100 | 17.7 | 47.1 | > 100 | > 100 |  | > 100 | > 100 | > 100 | > 100 | 85.6 | 
CC12O[C@H](c3ccccc3)[C@H](c3ccccc3)N1C(=O)C1(C(=O)OCc3ccccc3)CC12 (stereo partly specified) | > 100 | > 100 | > 100 | > 100 | 63.2 | > 100 | > 100 | > 100 | > 100 | > 100 | > 100 |  | 
CN(C)C(=O)CC(C(=O)O)c1c[nH]c2ccccc12 (stereo unspecified) | > 100 | > 100 | > 100 | > 100 | > 100 |  | > 100 |  | > 100 | > 100 | > 100 | > 100 | 
N#C/C(=C/c1cccnc1)C(=O)c1ccccc1 |  | > 100 | > 100 | > 100 | > 100 | > 100 | > 100 | > 100 | > 100 | > 100 | > 100 | > 100 | 
COC1=CC(=O)C(O)=C(C[C@@]2(C)[C@@H]3CCC[C@H](COC(=O)CCCCCNC(=O)OC(C)(C)C)[C@@]3(C)CC[C@@H]2C)C1=O | > 10 | > 10 | > 10 | > 10 | > 10 | > 10 | > 10 | > 10 | > 10 |  | > 10 |  | 
C/C(Cl)=N\OC(=O)Nc1ccccc1C(F)(F)F | > 100 | 43.6 | 15.5 | 40.3 | 47.9 |  |  | > 100 | > 100 |  |  | > 100 | 47.5
CCN1/C(=C/c2ccc3ccccc3[n+]2CC)C=Cc2ccccc21 | 15 |  |  | > 100 | > 33.9 | 9.71 | 4.64 |  | 27.8 | 9.22 | 13.9 | 13.7 | 88.9
NC(=O)N/N=C(\Cc1nc2ccc(C(=O)c3ccccc3)cc2[nH]c1=O)C(=O)Nc1ccc(Br)cc1 | > 100 |  | > 100 | > 100 | > 100 | > 100 | > 100 | > 100 | > 100 | > 100 | > 100 | > 100 | 
Cc1cc(N(CCC#N)CCC#N)ccc1/C=C(\NC(=O)/C=C/c1ccccc1)NC(=O)Nc1ccc(Cl)cc1 | > 100 | > 100 | > 100 | > 100 | > 100 | > 100 |  |  | > 100 | > 100 |  | > 100 | 
O=C1CN(c2ccc(Cl)cc2)C(=O)CN1CCN1CC(=O)N(c2ccc(Cl)cc2)CC1=O | > 100 | > 100 | > 100 |  | > 100 |  | > 100 | > 100 | > 100 | > 100 | > 100 |  | 
O=C(CSc1nnc(Cc2ccccc2)o1)Nc1ccc(Cl)cc1 | > 100 | > 100 | > 100 | > 100 | > 100 | > 100 | > 100 | > 100 | > 100 | > 100 | > 100 | > 100 | 
CCOC(OCC)C(CC)[Se]c1ccccc1[N+](=O)[O-] (stereo unspecified) | 11.6 | 8.92 | 3.22 | > 38.5 | > 86.7 | 18.4 | 4.45 | 9.44 | > 94.5 | > 56.2 | > 74.2 | 5.61 | 
N#CC1C(=O)Nc2sc(C(=O)c3ccc(Br)cc3)c(N)c2C12CCCCC2 (stereo unspecified) | 63.6 | 40.1 |  | > 100 | > 100 | 80.8 | 78.8 | > 100 | > 100 | 54.1 | > 100 | 42.6 | > 100
C=C1CC/C=C(/C(=O)O)CC[C@H]2[C@@H]1CC2(C)C | > 100 | > 100 | > 100 | > 100 | > 100 | > 100 | > 100 | > 100 | > 100 | > 100 | > 100 | > 100 | 
O=c1nc2n(cc1/C=C\Br)C1CC(O)C(CO2)O1 (stereo unspecified) | > 100 | > 100 | 54.8 | > 100 | > 100 | > 100 |  | > 100 | > 100 | > 100 | > 100 | > 100 | > 100
CC1=C/C(=N/N2C(=O)/C(=C/c3ccc(Cl)cc3)N=C2c2ccccc2)CC(C)(C)C1 | > 100 | > 100 |  | > 100 | > 100 | > 100 | > 100 | > 100 | > 100 | > 100 | > 100 | > 100 | > 100
O=[N+]([O-])c1ccc(NC2OCC(O)C(O)C2O)cc1 (stereo unspecified) | > 100 | > 100 |  | > 100 | > 100 | > 100 | > 100 | > 100 | > 100 | > 100 | > 100 | > 100 | 
Oc1ccc2c(c1)OCC(O)(c1ccccc1O)C2 (stereo unspecified) | > 100 | > 100 | > 100 | > 100 | > 100 | > 100 |  | > 100 | > 100 | > 100 | > 100 | > 100 | > 100
Cc1ccc(/C=C2\NC(=S)N(CN3CCOCC3)C2=O)cc1 | > 100 | > 100 |  | > 100 | > 100 | > 100 |  | > 100 | > 100 | > 100 | > 100 |  | > 100
